Measured values as given in the NIST ThermoML archive (doi:10.1021/je060271a).

Conditions: 303.16 K, Liquid, Vibrating tube method

CCCC(=O)OCC(COC(=O)CCC)(COC(=O)CCC)COC(=O)CCC [pentaerythritol tetrabutyrate]
Conditions | mass density [kg/m3]
11210 kPa | 1049.3
11243 kPa | 1049.3
11283 kPa | 1049.4
11317 kPa | 1049.5
11359 kPa | 1049.5
11394 kPa | 1049.4
11436 kPa | 1049.6
11472 kPa | 1049.6
11511 kPa | 1049.6
11541 kPa | 1049.5
11577 kPa | 1049.6
11607 kPa | 1049.6
11641 kPa | 1049.7
11666 kPa | 1049.6
11688 kPa | 1049.6
11714 kPa | 1049.7
11736 kPa | 1049.8
11763 kPa | 1049.7
11789 kPa | 1049.7
11811 kPa | 1049.8
11838 kPa | 1049.7
11865 kPa | 1049.9
11888 kPa | 1049.8
11910 kPa | 1049.8
11936 kPa | 1049.9
11964 kPa | 1049.8
11987 kPa | 1049.8
12015 kPa | 1049.9
12038 kPa | 1049.9
12068 kPa | 1049.8
12093 kPa | 1049.9
12117 kPa | 1050
12145 kPa | 1050
12173 kPa | 1050
12197 kPa | 1050
12221 kPa | 1050
12250 kPa | 1050.1
12278 kPa | 1050
12302 kPa | 1050.2
12331 kPa | 1050.1
12356 kPa | 1050.1
12385 kPa | 1050.2
12416 kPa | 1050.1
12441 kPa | 1050.1
12466 kPa | 1050.1
12496 kPa | 1050.2
12521 kPa | 1050.1
12551 kPa | 1050.3
12576 kPa | 1050.2
12607 kPa | 1050.3
12637 kPa | 1050.3
12663 kPa | 1050.3
12694 kPa | 1050.2
12720 kPa | 1050.2
12751 kPa | 1050.3
12782 kPa | 1050.3
12808 kPa | 1050.4
12840 kPa | 1050.4
12867 kPa | 1050.4
12899 kPa | 1050.5
12926 kPa | 1050.4
12959 kPa | 1050.5
12986 kPa | 1050.6
13019 kPa | 1050.6
13051 kPa | 1050.6
13078 kPa | 1050.5
13111 kPa | 1050.6
13173 kPa | 1050.6
13201 kPa | 1050.6
13235 kPa | 1050.5
13264 kPa | 1050.6
13297 kPa | 1050.5
13332 kPa | 1050.7
13360 kPa | 1050.6
13395 kPa | 1050.8
13424 kPa | 1050.7
13459 kPa | 1050.9
13493 kPa | 1050.9
13522 kPa | 1050.8
13558 kPa | 1050.8
13589 kPa | 1050.9
13625 kPa | 1050.9
13656 kPa | 1050.9
13693 kPa | 1050.9
13723 kPa | 1051
13761 kPa | 1051
13791 kPa | 1050.9
13829 kPa | 1050.9
13859 kPa | 1051.1
13897 kPa | 1051
13934 kPa | 1051
13966 kPa | 1050.9
14003 kPa | 1051.1
14035 kPa | 1051.2
14072 kPa | 1051.1
14111 kPa | 1051.1
14144 kPa | 1051.1
14184 kPa | 1051.2
14217 kPa | 1051.3
14257 kPa | 1051.4
14291 kPa | 1051.4
14332 kPa | 1051.2
14367 kPa | 1051.3
14409 kPa | 1051.4
14443 kPa | 1051.4
14483 kPa | 1051.4
14513 kPa | 1051.5
14547 kPa | 1051.5
14581 kPa | 1051.5
14609 kPa | 1051.5
14643 kPa | 1051.4
14672 kPa | 1051.4
14706 kPa | 1051.5
14740 kPa | 1051.5
14770 kPa | 1051.6
14804 kPa | 1051.6
14839 kPa | 1051.7
14868 kPa | 1051.5
14907 kPa | 1051.6
14937 kPa | 1051.7
14972 kPa | 1051.7
15002 kPa | 1051.8
15038 kPa | 1051.9
15069 kPa | 1051.7
15106 kPa | 1051.8
15136 kPa | 1051.8
15174 kPa | 1051.7
15210 kPa | 1051.9
15242 kPa | 1051.9
15279 kPa | 1051.8
15312 kPa | 1051.9
15345 kPa | 1051.9
15384 kPa | 1052.1
15415 kPa | 1052
15453 kPa | 1052
15492 kPa | 1052
15525 kPa | 1052.1
15564 kPa | 1052.2
15597 kPa | 1052.1
15637 kPa | 1052.1
15671 kPa | 1052.1
15710 kPa | 1052.1
15743 kPa | 1052.1
15783 kPa | 1052.3
15823 kPa | 1052.2
15857 kPa | 1052.2
15897 kPa | 1052.3
